Experimental findings from ChEMBL document CHEMBL5247618, “Discovery and optimization of 4-anilinoquinazoline derivatives spanning ATP binding site and allosteric site as effective EGFR-C797S inhibitors” (Eur J Med Chem, 2022) are described below.

A short description of data set [1]: in vivo. Particulars: Sprague-Dawley, rat, iv, 1 mg/kg.
Data set [2] is described as follows: in vivo. Particulars: Sprague-Dawley, rat, iv, 1 mg/kg. The source holds these as a separate data set.
Data set [3] can be described thus: in vivo. The settings on record: Sprague-Dawley, rat, po, 10 mg/kg.
A short description of data set [4]: in vivo. Particulars: Sprague-Dawley, rat, po, 10 mg/kg. The source holds these as a separate data set.

Consider `COc1cc2c(Nc3ccc(Oc4ccccc4)cc3)ncnc2cc1OCC1CCN(C)CC1`, for which the highest concentration (Cmax) (as a rule, the highest concentration seen after dosing) in the data set “in vivo [1]” was 69.6 ng/mL; in “in vivo [3]” it was 7.43 ng/mL. The half-life (usually the time needed for the level to fall by half in the phase considered) in “in vivo [2]” was 1.97 h. Also, in the data set “in vivo [4]”, the bioavailability (in general, the share of a dose that reaches the circulation, judged against a reference dose that is usually intravenous) was 9.33%.
